Source: PMC8512853, “Synthesis, Bioactivity, Pharmacokinetic and Biomimetic Properties of Multi-Substituted Coumarin Derivatives” (Molecules, 2021)

Legend:
[1] = IAM chromatography (IAM.PC.DD.2 column) and estimated human oral absorption; format: in vitro ADME; conditions: for %HOA estimated human oral absorption: Equation (1) from logkw and physicochemical properties; for logkw (IAM retention factor): pH 7.40, IAM.PC.DD.2, intercept at pure aqueous phase
Description: The immobilized artificial membrane (IAM) chromatographic behavior of the 25 novel coumarin derivatives was studied. IAM stationary phases consisting of monolayers of phospholipids (e.g., phosphatidylcholine, PC) immobilized on a propylamine–silica support can simulate interactions of chemicals with cell membranes.
Using an IAM.PC.DD2 column (Regis Technologies) as the stationary phase with PBS as the mobile phase at pH = 7.40, and a flow rate of 3 mL/min in the presence of acetonitrile fractions (C%) of 10%, 15%, 20%, 25%, and 30%, a logkC% value was obtained via the retention time for each concentration of CH3CN. Retention factors were then used to plot logkC% as a function of acetonitrile fraction. The intercept of the linear regression corresponds to the logkw, corresponding to pure aqueous phase.
(1) % HOA=100/1+10^−(2.17+0.88*logkw−0.006*MW−0.83*A−0.53*F^*++1.18*F^*−)
(§1) The physicochemical and biomimetic properties of the new coumarin analogues were studied using liquid chromatography (HPLC) in 220–230 nm Two types of chromatographic columns were used: (i) immobilized artificial membrane (IAM) ([…].PC.DD.2, Regis Technologies) column and (ii) human serum albumin (HSA) (CHIRAL PAK) column.
(§2) The training set consisted of 25 neutral and slightly acidic compounds. Their IAM retention factors were measured at pH 7.40 on a IAM.PC.DD.2 column. The mobile phase consisted of acetonitrile solvent (CH3CN) in various concentrations (10%, 15%, 20%, 25%, 30%) and a flow rate of 3 mL/min was selected. Their HSA retention factors were measured at pH 7.00 on HSA column. The mobile phase consisted of acetonitrile solvent (CH3CN) in 10% concentration and a flow rate of 1 mL/min was selected.
(§3) The different pH values (7.00 for HSA and 7.40 for IAM) were measured with an electronic pH meter MP125 and were achieved by preparing suitable buffers of phosphates and chlorides (0.12 g KH2PO4, 0.72 g Na2HPO4·2H2O, 4.00 g NaCl and 0.10 g KCl). Sodium citrate solution was used to determine the dead time, which was deducted from the results at the end of measurements. The elution time of each coumarin analogue was measured at least three times. Retention times were converted into logk values, which represent the logarithm of the retention indexes, using Equation (8). (8) logk=log(tr−t0/t0) where tr is the retention time of the coumarin derivative and t0 is the dead time.

soybean LOX = target: T1, soybean LOX (Glycine max, UniProt P08170); assay: Inhibition of soybean LOX; format: biochemical; conditions: for inhibition at 100 µM: read-out: Soybean LOX % inhibition (100 μΜ)
T1 construct: purchased Sigma-Aldrich and Fluka
T1 sequence (P08170 1-839): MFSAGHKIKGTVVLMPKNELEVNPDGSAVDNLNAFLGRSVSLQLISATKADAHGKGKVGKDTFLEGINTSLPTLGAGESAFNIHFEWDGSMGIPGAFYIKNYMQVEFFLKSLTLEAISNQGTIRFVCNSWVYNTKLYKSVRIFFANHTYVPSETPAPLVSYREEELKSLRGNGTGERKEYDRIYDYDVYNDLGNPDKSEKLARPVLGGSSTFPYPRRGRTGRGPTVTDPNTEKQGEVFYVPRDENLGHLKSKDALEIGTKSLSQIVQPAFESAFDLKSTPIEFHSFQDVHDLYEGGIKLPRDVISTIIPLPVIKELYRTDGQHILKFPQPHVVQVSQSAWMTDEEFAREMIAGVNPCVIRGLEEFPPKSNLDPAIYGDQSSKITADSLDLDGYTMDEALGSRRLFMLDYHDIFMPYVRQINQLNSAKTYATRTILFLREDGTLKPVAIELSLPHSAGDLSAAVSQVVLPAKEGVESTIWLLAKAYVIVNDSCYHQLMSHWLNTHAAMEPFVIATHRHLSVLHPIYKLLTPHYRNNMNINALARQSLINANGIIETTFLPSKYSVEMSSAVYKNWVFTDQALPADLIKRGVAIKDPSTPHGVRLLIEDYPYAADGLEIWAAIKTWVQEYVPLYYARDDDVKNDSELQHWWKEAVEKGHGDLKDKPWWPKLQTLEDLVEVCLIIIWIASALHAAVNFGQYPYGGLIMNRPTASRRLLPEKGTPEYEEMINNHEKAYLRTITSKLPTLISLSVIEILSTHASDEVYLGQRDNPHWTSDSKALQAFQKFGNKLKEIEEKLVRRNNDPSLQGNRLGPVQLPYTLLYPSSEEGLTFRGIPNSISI
Description: Soybean LOX is a plant enzyme which has been used widely as a prototype for studying the functional and structural properties of the homologous family of lipoxygenases, presenting satisfactory homology with the human 5-LOX [14]. Linoleic acid (LA) is a standard substrate for plant LOXs. In this protocol, all new molecules were tested as inhibitors of soybean LOX as an indication of their anti-inflammatory activity (Table 3).
For the reference sample in a UV cuvette 10 μL of the test sample (100 μM diluted in DMSO), 200 μL LOX solution (diluted in NaCl 0.9%), 100 μL LA (diluted in Tris buffer) and Tris buffer solution (pH 9) were added to a final volume of 1 mL. Respectively for the measurement sample, also in a UV cuvette 10 μL of test sample, 200 μL LOX solution, and Tris buffer solution (pH 9) were added to a final volume of 1mL. Standard and blank samples were prepared in the same way using DMSO (solvent) instead of the tested coumarin analogues.

[2] = target: T2, human serum albumin (HSA) (Homo sapiens, UniProt P02768); assay: HSA chromatography and estimated plasma protein binding; format: in vitro ADME; conditions: for fraction unbound: human, immobilized human serum albumin (HSA) column, Equation (2) from logk10, pH 7.00, read-out: %PPB estimated plasma protein binding (converted); for logk10 (HSA retention factor): pH 7.00, 10% acetonitrile
T2 construct: purchased CHIRAL PAK
T2 sequence (P02768 25-609): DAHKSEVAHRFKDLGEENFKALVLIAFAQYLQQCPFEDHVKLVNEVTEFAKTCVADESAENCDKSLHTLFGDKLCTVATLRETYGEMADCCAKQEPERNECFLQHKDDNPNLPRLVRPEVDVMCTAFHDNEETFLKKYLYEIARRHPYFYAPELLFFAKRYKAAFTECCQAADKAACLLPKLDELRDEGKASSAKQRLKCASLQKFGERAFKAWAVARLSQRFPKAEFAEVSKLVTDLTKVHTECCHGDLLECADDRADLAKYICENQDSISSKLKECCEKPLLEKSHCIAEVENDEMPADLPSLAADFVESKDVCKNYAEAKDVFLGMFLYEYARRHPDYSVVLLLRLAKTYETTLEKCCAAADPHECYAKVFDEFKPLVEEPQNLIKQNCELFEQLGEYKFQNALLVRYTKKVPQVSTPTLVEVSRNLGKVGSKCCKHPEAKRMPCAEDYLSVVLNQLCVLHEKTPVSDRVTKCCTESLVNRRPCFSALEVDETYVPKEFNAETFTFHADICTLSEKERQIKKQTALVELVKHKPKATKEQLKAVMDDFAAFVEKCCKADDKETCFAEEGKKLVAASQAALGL
Description: The novel coumarin derivatives were also studied using the immobilized protein column HSA. An HSA chromatographic column provides estimates on the binding affinities of chemicals to human serum albumin, which is the most abundant plasma protein and is related to drug efficacy, drug—drug pharmacokinetic interactions, and drug safety. HSA binding can be considered to represent almost the total plasma protein binding of a drug.
Retention factors on the HSA stationary phase were measured using as eluent PBS at pH = 7.00 and a flow rate of 1 mL/min in the presence of 10% acetonitrile.
(2) % PPB=101∗10^logk10/1+10^logk10
as §1, §2, §3

Structure (SMILES)	%HOA estimated human oral absorption [1] [%]	logkw (IAM retention factor) [1]	Soybean LOX % inhibition (100 μΜ) (soybean LOX)	inhibition at 100 µM (soybean LOX) [%]	fraction unbound [2]	logk10 (HSA retention factor) [2]	IC50 (soybean LOX) [µM]
CC(=O)Oc1cccc2oc(=O)c(-c3ccccc3Cl)c(C)c12 [Compound 3a, 5-acetyloxy-3-(2-chlorophenyl)-4-methyl-chromen-2-one]	100	3.58	inactive	17	0.202	0.57	
CC(=O)Oc1cccc2oc(=O)c(-c3cccc(Cl)c3)c(C)c12 [Compound 3b, 5-acetyloxy-3-(3-chlorophenyl)-4-methyl-chromen-2-one]	99.8	2.88			0.128	0.80	31.6
CC(=O)Oc1cccc2oc(=O)c(-c3ccc(Cl)cc3)c(C)c12 [Compound 3c, 5-acetyloxy-3-(4-chlorophenyl)-4-methyl-chromen-2-one]	99.9	3.05	no		0.091	0.96	
CC(=O)Oc1cccc2oc(=O)c(-c3ccccc3F)c(C)c12 [Compound 3d, 5-acetyloxy-3-(2-fluorophenyl)-4-methyl-chromen-2-one]	99.7	2.56	inactive	11.6	0.149	0.73	
CC(=O)Oc1cccc2oc(=O)c(-c3cccc(F)c3)c(C)c12 [Compound 3e, 5-acetyloxy-3-(3-fluorophenyl)-4-methyl-chromen-2-one]	99.7	2.47			0.149	0.73	11.4
CC(=O)Oc1cccc2oc(=O)c(-c3ccc(F)cc3)c(C)c12 [Compound 3f, 5-acetyloxy-3-(4-fluorophenyl)-4-methyl-chromen-2-one]	99.7	2.52	inactive	20.1	0.206	0.57	
CC(=O)Oc1cccc2oc(=O)c(-c3cccc(Br)c3)c(C)c12 [Compound 3g, 5-acetyloxy-3-(3-bromophenyl)-4-methyl-chromen-2-one]	100.0	4.77			0.12	0.83	40.5
CC(=O)Oc1ccc(-c2c(C)c3ccccc3oc2=O)cc1 [Compound 3h, 3-(4-acetyloxyphenyl)-4-methyl-chromen-2-one]	99.7	2.48		33.8	0.145	0.74	
CC(=O)Oc1ccc(-c2c(C)c3cc(Br)ccc3oc2=O)cc1 [Compound 3i, 3-(4-acetyloxyphenyl)-6-bromo-4-methyl-chromen-2-one]	99.8	3.28		46.5	0.059	1.14	
CC(=O)Oc1ccc(-c2c(C)c3cc(Cl)ccc3oc2=O)cc1 [Compound 3j, 3-(4-acetyloxyphenyl)-6-chloro-4-methyl-chromen-2-one]	99.9	3.06			0.088	0.97	49.5
CC(=O)Oc1ccc(-c2c(C)c3cc(Br)cc(Br)c3oc2=O)cc1 [Compound 3k, 3-(4-acetyloxyphenyl)-6,8-dibromo-4-methyl-chromen-2-one]	99.9	3.91			0.013	1.63	8.7
CC(=O)Oc1ccc(-c2c(C)c3ccccc3oc2=O)cc1OC(C)=O [Compound 3l, 3-(4,5-diacetyloxyphenyl)-4-methyl-chromen-2-one]	99.4	2.43		31.4	0.401	0.16	
CC(=O)Oc1ccc(-c2c(C)c3cc(Br)ccc3oc2=O)cc1OC(C)=O [Compound 3m, 3-(4,5-diacetyloxyphenyl)-6-bromo-4-methyl-chromen-2-one]	99.6	3.21		48	0.105	0.89	
CC(=O)Oc1ccc(-c2c(C)c3cc(Cl)ccc3oc2=O)cc1OC(C)=O [Compound 3n, 3-(4,5-diacetyloxyphenyl)-6-chloro-4-methyl-chromen-2-one]	99.7	3.04			0.145	0.74	56.5
CC(=O)Oc1ccc(-c2c(C)c3cc(Br)cc(Br)c3oc2=O)cc1OC(C)=O [Compound 3o, 3-(4,5-diacetyloxyphenyl)-6,8-dibromo-4-methyl-chromen-2-one]	99.6	3.79	no		0.201	0.58	
Cc1c(-c2ccccc2Cl)c(=O)oc2cccc(O)c12 [Compound 4a, 3-(2-chlorophenyl)-5-hydroxy-4-methyl-chromen-2-one]	100	4.09			0.13	0.79	10
Cc1c(-c2ccc(O)cc2)c(=O)oc2c(Br)cc(Br)cc12 [Compound 4k, 6,8-dibromo-3-(4-hydroxyphenyl)-4-methyl-chromen-2-one]			inactive	33.4			
